# Experiments:
# human CD34+ cells [1] = experiment: Four hour homing of human CD34+ cells to the CCl4-injured liver of NOD/SCID mice; assay type: in vivo; conditions: non-irradiated NOD/SCID mice, 15 μl CCl4 24 hours prior, four hour assay
# Procedure: (§1) Liver injury—Mice were injected intraperitoneally (IP) with 10, 15 or 30 μl/mouse of CCl4 and liver samples were collected within a few hours, or 1-2 days following injection, as indicated. In homing assays, mice were intraveneously (IV) transplanted with human MPB CD34^+ cells (0.6×10^6 cells/mouse) 4 hours prior to liver collection. Homing was blocked by preincubation of transplanted cells with 10 μg of anti CXCR4/mouse or by IP injection of 100 μg/mouse of a specific MMP2/9 inhibitor III (CalBiochem, catalogue #444251). Human progenitors in the blood circulation of engrafted mice transplanted a month before with human CB MNC (20×10^6 cells/mouse) were quantified by seeding 2×10^5 mononuclear cells/ml in colony forming unit assay as described [Kollet (2001) Blood 97:3283-3291]. CXCR4 expression was determined by flow cytometry.
# [2] = system: human colony forming progenitors; experiment: Human progenitors in blood circulation of engrafted mice, colony forming unit assay; assay type: in vivo; conditions: engrafted NOD/SCID mice, one day after single injection of 10 μl CCl4
# Procedure: Data summarize three independent experiments.
# as §1
# CXCR4 [3] = experiment: Human CXCR4 staining of peripheral blood MNC of chimeric mice, flow cytometry; assay type: in vivo; conditions: CCl4 treated chimeric mice
# Procedure: as §1
# MMP-2/9 = experiment: Zymography assay of MMP-2/9 activity in liver of CCl4 injected mice; assay type: in vivo; conditions: CCl4 treated NOD/SCID mice
# human CD34+ cells [4] = experiment: Four hour homing of CD34+ cells to the liver of non-irradiated mice, local hepatic injection of human SDF-1; assay type: in vivo; conditions: non-irradiated NOD/SCID, human SDF-1 injected into hepatic parenchyma, IV infusion of cells
# Procedure: FIG. 1a is a histogram showing inhibition of homing of human CB or MPB enriched CD34^+ cells to the murine BM, spleen and liver by neutralizing CXCR4 antibodies. Data presents inhibition as percentage of control. P≦0.008, comparing anti CXCR4 treated samples to control counterparts. […] Human SDF-1 was injected to the liver parenchyma as indicated. Cells were collected from the injected lobe to determine the homing of human CD34^+ cells.
# Mice—NOD/SCID mice were bred and housed as previously described [Kollet (2001) Blood 97:3283-3291]. All experiments were approved by the animal care committee of the Weizmann Institute. Mice were sublethally irradiated (i.e., 375 cGy) as indicated, 24 hours prior to transplantation. Non-irradiated mice were used when local hepatic injection of SDF-1 was effected.
# CXCR4 neutralization—Human CD34^+ cells were pre-incubated with anti human CXCR4 neutralizing mAb (10 μg/0.5×10^6 cells, 12G5, R&D) and were injected (0.5-0.6×10^6 CD34^+ cells per mouse) into the tail vein without washing. Mice were killed 4 hours, 16 hours, or 5-6 weeks following cell transplantation as indicated. Single cell suspensions of liver tissues were washed thoroughly with PBS. Homing of human cells was determined as described [Kollet (2001) Blood 97:3283-3291], acquiring 1.5×10^6 cells/sample.
# CXCR4 [5] = experiment: Surface CXCR4 expression on CD34+ cells by FACS; assay type: cell-based, human; conditions: CB CD34+ cells, 5 hours incubation
# Procedure: CB CD34^+ cells were incubated for 5 hours with RPMI growth medium and HT1080 conditioned medium. Cells were stained with isotype control antibody as a negative control (Isot), or with CXCR4 antibody. Representative data of 3 experiments is shown.
# Human cells—Cord blood (CB) cells and adult mobilized peripheral blood (MPB) cells were obtained after informed consent in accordance with procedures approved by the human ethics committee of the Weizmann Institute. CD34^+ cell enrichment was effected using magnetic bead separation as previously described [Kollet (2001) Blood 97:3283-3291]. CXCR4 expression was determined by flow cytometry using purified anti human CXCR4 (clone 12G5, R&D, Minneapolis, Minn.) and secondary F(ab′)2 fragment of goat anti mouse IgG FITC (Jackson, West Grove, Pa.).
molecule,measurement,setting,value
"ClC(Cl)(Cl)Cl [CCl4, Carbon tetrachloride]",homing of human CD34+ cells to the injured liver,human CD34+ cells [1],rapidly induced homing
same,recruitment of human colony forming progenitors from bone marrow to the circulation,[2],induced the recruitment
same,CXCR4 expression on human MNC cells in the circulation,CXCR4 [3],increased level of CXCR4 expression
same,MMP-9 expression in the liver,MMP-2/9,emergence of MMP-9 expression
same,activity of MMP-2 in the liver,MMP-2/9,increased activity
"SDF-1: chemokine stromal derived factor, ligand of CXCR4",homing of CD34+ progenitors to the liver,human CD34+ cells [4],increased the homing
"purified MMP-2: purified recombinant MMP-2 (protein, UniProt P08253 110-660, looked up) 72 kDa type IV collagenase: YNFFPRKPKWDKNQITYRIIGYTPDLDPETVDDAFARAFQVWSDVTPLRFSRIHDGEADIMINFGRWEHGDGYPFDGKDGLLAHAFAPGTGVGGDSHFDDDELWTLGEGQVVRVKYGNADGEYCKFPFLFNGKEYNSCTDTGRSDGFLWCSTTYNFEKDGKYGFCPHEALFTMGGNAEGQPCKFPFRFQGTSYDSCTTEGRTDGYRWCGTTEDYDRDKKYGFCPETAMSTVGGNSEGAPCVFPFTFLGNKYESCTSAGRSDGKMWCATTANYDDDRKWGFCPDQGYSLFLVAAHEFGHAMGLEHSQDPGALMAPIYTYTKNFRLSQDDIKGIQELYGASPDIDLGTGPTPTLGPVTPEICKQDIVFDGIAQIRGEIFFFKDRFIWRTVTPRDKPMGPLLVATFWPELPEKIDAVYEAPQEEKAVFFAGNEYWIYSASTLERGYPKPLTSLGLPPDVQRVDAAFNWSKNKKTYIFAGDKFWRYNEVKKKMDPGFPKLIADAWNAIPDNLDAVVDLQGGGHSYFFKGAYYLKLENQSLKSVKFGSIKSDWLGC",surface CXCR4 expression on enriched human CD34+ cells,CXCR4 [5],upregulation of CXCR4

# Reference: US8252588B2, “Stem cells having increased sensitivity to SDF-1 and methods of generating and using same” (Yeda Research and Development Co. Ltd., priority 2003, dated 2012)
